Laboratory results from patent publication US7989430B2, “Antibacterial agents” (priority 2005, dated 2011).
≈ marks a conversion by molar mass, not a printed value.

How the values were obtained:
[1] = Chemical stability on storage; conditions: salt form prepared in Example 1 vs free acid
[2] = system: M. tuberculosis H37Rv; assay: M. tuberculosis H37Rv MIC assay (whole-cell); assay type: cell-based, Mycobacterium tuberculosis
[3] = target: MbtA (Mycobacterium tuberculosis, UniProt P71716); conditions: data not shown
[4] = 50% aq TFA, 3 h
[5] = system: M. tuberculosis H37Rv; conditions: Ferreras et al., Nature Chem. Biol. 2005, likely the free acid form; cited from earlier work

MbtA, sequence (P71716 whole entry): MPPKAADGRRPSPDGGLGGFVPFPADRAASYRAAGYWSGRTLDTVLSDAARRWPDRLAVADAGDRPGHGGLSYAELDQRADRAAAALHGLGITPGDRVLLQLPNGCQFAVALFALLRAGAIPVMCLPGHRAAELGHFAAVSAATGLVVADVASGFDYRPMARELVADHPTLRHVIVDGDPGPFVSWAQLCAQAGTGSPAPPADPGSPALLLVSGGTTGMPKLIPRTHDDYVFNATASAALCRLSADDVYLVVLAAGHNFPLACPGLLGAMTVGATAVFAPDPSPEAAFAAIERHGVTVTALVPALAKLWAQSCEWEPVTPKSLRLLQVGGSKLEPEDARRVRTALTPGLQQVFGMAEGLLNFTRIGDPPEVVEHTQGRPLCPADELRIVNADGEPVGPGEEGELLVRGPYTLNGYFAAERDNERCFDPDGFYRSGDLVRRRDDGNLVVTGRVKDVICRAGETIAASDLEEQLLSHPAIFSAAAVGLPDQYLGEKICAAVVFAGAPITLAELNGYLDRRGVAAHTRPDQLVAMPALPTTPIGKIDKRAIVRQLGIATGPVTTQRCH

## CCN(CC)CC.Nc1ncnc2c1ncn2[C@@H]1O[C@H](COS(=O)(=O)NC(=O)c2ccccc2O)[C@@H](O)[C@H]1O [Example 1, 5′-O—(N-(2-Hydroxybenzoyl)sulfamoyl)-adenosine triethylammonium salt]
[1]
  stability relative to the free acid: significantly more stable
[2]; salt form vs free acid
  potency against M. tuberculosis H37Rv relative to the free acid: about 28 times

## CCN(CC)CC.Nc1ncnc2c1ncn2[C@H]1C[C@H](O)[C@@H](COS(=O)(=O)NC(=O)c2ccccc2O)O1 [Example 42, 2′-Deoxy-5′-O—[N-(2-hydroxybenzoyl)sulfamoyl]-adenosine triethylammonium salt]
[3]
  activity in the in vitro enzyme assay: potent activity
[4]
  stability under acidic conditions: unstable
[2]; data not shown
  activity in whole-cell assay of M. tuberculosis: potent activity

## Nc1ncnc2c1ncn2[C@@H]1O[C@H](COS(=O)(=O)NC(=O)c2ccc(O)c(O)c2)[C@@H](O)[C@H]1O
other
  melting point: > 190 °C (dec.)

## Nc1ncnc2c1ncn2[C@@H]1O[C@H](COS(=O)(=O)NC(=O)c2ccccc2O)[C@@H](O)[C@H]1O [Compound 34, 5′-O—(N-(2-hydroxybenzoyl)sulfamoyl)adenosine]
[5]
  MIC50: 2.2 µM (≈ 1.03 µg/mL)
